# Experimental data reported in paper PMC9862037, “Interactions of Mycotoxin Alternariol with Cytochrome P450 Enzymes and OATP Transporters” (Metabolites, 2022).
# Read-outs that look alike come from different tables or passages of the source.
# Legend:
# CYP1A2 [1] = target: T1, CYP1A2 (Homo sapiens, UniProt P05177); assay type: in vitro ADME; details: 5 μM AOH
# T1 construct: purchased Abcam ab211075
# Experimental: (§1) To test the potential biotransformation of AOH by CYPs, the changes in the concentrations of AOH were examined in the presence of CYP1A2, 2C9, 2C19, 2D6, or 3A4 enzymes. Samples (final volume: 200 μL) containing AOH (5 μM), glucose-6-phosphate (500 μM), nicotinamide adenine dinucleotide phosphate (NADP^+, 200 μM), and the enzymes (CypExpress Cytochrome P450 reagents: 15 mg/mL each; including both CYP and glucose-6-phosphate dehydrogenase enzymes) were incubated for 0, 30, 60, 90, and 120 min (700 rpm, 30 °C) in potassium phosphate buffer (0.05 M, pH 7.5). The reaction was stopped by the addition of ice-cold methanol (100 μL), then the samples were centrifuged (10 min, 14,000 g, room temperature). AOH content of the supernatants was directly analyzed by HPLC-FLD (see details in Section 2.7). As a control, CypExpress Control reagent (CYPnull; 15 mg/mL) was also applied, which is a permeabilized and stabilized dried yeast powder (produced using an empty vector) and processed identically to CypExpress Cytochrome P450 products.
# (§2) In CYP experiments, AOH was quantified with the above-described HPLC system, except that a fluorescence detector (FP-920; Jasco, Tokyo, Japan) was applied. Samples (20 μL) were driven through a Phenomenex Security Guard (C18, 4.0 × 3.0 mm) precolumn (Phenomenex, Torrance, CA, USA) linked to a Kinetex EVO-C18 (250 × 4.6 mm, 5 μm; Phenomenex) analytical column with 1.0 mL/min flow rate, at room temperature. For the isocratic elution, a mobile phase with 1 mM phosphoric acid (pH 3.0) and acetonitrile (65:35 v/v%) was applied. AOH was detected at 455 nm (λex = 345 nm). Limit of detection (LOD) and limit of quantification (LOQ) were established as the lowest concentrations when the signal-to-noise ratios were three and ten, respectively. The major validation parameters of this HPLC-FLD method were the following: linearity (R^2 = 0.997, in the 100–1000 nM concentration range); LOD = 100 nM; LOQ = 200 nM; intraday precision = 2.9% (n = 7); accuracy = 3.4% (n = 7).
# CYP3A4 = target: T2, CYP3A4 (Homo sapiens, UniProt P08684); assay type: in vitro ADME; details: 5 μM AOH; 120 min incubation; vs CYPnull
# T2 construct: purchased Merck; host or cells: yeast (inferred from the description of the CYPnull control, 'processed identically')
# T2 sequence (P08684 whole entry): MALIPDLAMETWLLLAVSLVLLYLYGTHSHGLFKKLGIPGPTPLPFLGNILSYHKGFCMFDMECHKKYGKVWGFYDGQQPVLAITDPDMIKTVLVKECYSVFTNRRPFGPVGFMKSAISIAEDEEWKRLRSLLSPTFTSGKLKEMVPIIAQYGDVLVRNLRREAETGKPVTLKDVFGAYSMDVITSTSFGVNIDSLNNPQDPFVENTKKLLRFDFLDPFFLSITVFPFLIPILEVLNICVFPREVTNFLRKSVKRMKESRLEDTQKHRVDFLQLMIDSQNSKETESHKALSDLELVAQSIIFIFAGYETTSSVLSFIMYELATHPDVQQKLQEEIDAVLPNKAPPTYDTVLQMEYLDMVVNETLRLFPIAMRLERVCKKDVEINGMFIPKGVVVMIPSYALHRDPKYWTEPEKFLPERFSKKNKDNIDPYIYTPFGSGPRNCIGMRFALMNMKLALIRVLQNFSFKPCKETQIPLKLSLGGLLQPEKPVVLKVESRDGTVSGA
# Experimental: as §1, §2
# CYP2D6 = target: T3, CYP2D6 (Homo sapiens, UniProt P10635); assay type: in vitro ADME; details: 5 μM AOH; 120 min incubation; vs CYPnull
# T3 construct: purchased Merck; host or cells: yeast (inferred from the description of the CYPnull control, 'processed identically')
# T3 sequence (P10635 whole entry): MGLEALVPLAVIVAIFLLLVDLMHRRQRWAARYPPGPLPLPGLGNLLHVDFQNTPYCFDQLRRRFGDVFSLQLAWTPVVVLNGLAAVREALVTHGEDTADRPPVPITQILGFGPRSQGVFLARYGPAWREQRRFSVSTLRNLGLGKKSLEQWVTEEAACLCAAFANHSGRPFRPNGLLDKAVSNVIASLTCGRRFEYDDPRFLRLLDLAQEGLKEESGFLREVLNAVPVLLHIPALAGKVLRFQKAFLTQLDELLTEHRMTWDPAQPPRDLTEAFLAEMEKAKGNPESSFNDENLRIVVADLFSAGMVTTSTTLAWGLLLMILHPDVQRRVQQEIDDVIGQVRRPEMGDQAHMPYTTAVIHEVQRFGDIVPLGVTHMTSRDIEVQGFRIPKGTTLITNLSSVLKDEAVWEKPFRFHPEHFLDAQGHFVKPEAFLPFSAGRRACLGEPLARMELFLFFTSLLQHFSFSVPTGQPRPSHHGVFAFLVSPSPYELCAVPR
# Experimental: as §1, §2
# CYP2C19 = target: T4, CYP2C19 (Homo sapiens, UniProt P33261); assay type: in vitro ADME; details: 5 μM AOH; significant (p < 0.01) only after 120 min
# T4 construct: purchased Merck; host or cells: yeast (inferred from the description of the CYPnull control, 'processed identically')
# T4 sequence (P33261 whole entry): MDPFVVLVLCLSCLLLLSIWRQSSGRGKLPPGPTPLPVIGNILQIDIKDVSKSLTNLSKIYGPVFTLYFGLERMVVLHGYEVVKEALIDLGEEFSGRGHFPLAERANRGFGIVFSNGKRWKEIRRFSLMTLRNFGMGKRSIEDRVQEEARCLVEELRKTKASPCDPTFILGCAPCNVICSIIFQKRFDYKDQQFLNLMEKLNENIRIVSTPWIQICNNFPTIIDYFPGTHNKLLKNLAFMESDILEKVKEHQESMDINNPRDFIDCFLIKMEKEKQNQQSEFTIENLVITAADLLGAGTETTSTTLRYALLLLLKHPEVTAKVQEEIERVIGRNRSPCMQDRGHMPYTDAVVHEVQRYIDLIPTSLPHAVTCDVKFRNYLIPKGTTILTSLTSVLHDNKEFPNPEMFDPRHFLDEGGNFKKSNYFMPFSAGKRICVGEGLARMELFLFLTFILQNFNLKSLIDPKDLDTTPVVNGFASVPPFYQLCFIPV
# Experimental: as §1, §2
# CYP2C9 = target: T5, CYP2C9 (Homo sapiens, UniProt P11712); assay type: in vitro ADME; details: 5 μM AOH; 120 min incubation; vs CYPnull
# T5 construct: purchased Merck; host or cells: yeast (inferred from the description of the CYPnull control, 'processed identically')
# T5 sequence (P11712 whole entry): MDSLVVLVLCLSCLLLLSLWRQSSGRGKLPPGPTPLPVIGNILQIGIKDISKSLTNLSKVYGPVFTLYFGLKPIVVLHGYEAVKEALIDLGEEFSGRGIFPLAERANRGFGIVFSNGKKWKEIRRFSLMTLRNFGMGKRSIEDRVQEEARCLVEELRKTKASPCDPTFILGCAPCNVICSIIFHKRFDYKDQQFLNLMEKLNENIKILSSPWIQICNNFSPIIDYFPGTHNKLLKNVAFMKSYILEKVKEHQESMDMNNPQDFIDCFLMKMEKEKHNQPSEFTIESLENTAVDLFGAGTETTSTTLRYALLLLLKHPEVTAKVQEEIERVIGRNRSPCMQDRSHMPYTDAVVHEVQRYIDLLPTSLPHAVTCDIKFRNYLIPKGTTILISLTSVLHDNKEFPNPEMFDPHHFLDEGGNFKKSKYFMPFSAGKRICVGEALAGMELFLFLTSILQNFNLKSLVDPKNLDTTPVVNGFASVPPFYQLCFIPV
# Experimental: as §1, §2
# OATP2B1 = target: T6, OATP2B1 (Homo sapiens, UniProt O94956); test: cell-based; details: A431-OATP2B1; pyranine 20 µM; pH 5.5; 15 min; read-out: IC50, OATP2B1 inhibition
# T6 construct: expressed in transfected cells; host or cells: A431
# T6 sequence (O94956 whole entry): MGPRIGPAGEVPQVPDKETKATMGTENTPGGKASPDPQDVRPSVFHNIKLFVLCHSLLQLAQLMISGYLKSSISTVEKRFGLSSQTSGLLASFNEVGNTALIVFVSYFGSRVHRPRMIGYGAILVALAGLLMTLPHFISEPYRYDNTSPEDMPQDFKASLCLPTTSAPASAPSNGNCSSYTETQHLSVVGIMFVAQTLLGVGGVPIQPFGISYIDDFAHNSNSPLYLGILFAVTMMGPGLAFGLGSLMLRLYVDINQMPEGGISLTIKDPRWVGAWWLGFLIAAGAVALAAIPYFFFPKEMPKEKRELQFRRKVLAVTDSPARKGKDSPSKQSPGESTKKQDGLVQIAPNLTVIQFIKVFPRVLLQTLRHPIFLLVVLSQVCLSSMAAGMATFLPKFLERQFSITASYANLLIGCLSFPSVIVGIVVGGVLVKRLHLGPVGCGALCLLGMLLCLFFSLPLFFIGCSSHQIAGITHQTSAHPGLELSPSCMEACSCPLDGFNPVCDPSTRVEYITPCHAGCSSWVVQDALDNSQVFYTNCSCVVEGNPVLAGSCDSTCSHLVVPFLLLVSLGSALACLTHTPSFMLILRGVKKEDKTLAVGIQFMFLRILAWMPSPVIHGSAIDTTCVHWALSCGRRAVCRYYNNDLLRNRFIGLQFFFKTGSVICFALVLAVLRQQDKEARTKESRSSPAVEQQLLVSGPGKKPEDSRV
# Experimental: (§3) A431 cell lines overexpressing human OATPs (1A2, 1B1, 1B3, or 2B1) and their mock transfected controls were generated earlier. A431 cells expressed no or negligible OATPs compared to the overexpressing cell lines. Cells were cultured in Dulbecco’s modified Eagle medium (DMEM, Thermo Fisher Scientific, Waltham, MA, USA) with 10% fetal bovine serum, 2 mM L-glutamine, 100 U/mL penicillin, and 100 µg/mL streptomycin at 37 °C, with 5% CO2. OATP expression was regularly monitored (based on the transport activity of transfected cells), and the cells were used up to 20 passages.
# (§4) Interaction between OATPs (1A2, 1B1, 1B3, and 2B1) and AOH was measured in an indirect transport assay with pyranine or sulforhodamine 101 as fluorescent probes. A431 cell overexpressing OATPs or their mock transfected controls were seeded on 96-well plates one day prior to the measurements in 200 µL DMEM in 8 × 10^4 cells/well density. Before the measurement, the medium was removed, and cells were washed three times with 200 µL PBS (phosphate-buffered saline, pH 7.2) at room temperature. Then the cells were preincubated with 50 µL uptake buffer (125 mM NaCl, 4.8 mM KCl, 1.2 mM CaCl2, 1.2 mM KH2PO4, […], 25 mM MES, and 5.6 mM glucose, with the pH adjusted using 1 M HEPES and 10 N NaOH, pH 5.5 for OATP1B1/1B3/2B1 and pH 7.4 for OATP1A2) with or without increasing concentrations (0.00, 0.16, 0.31, 0.63, 1.25, 2.5, 5.0, 10, and 20 μM) of AOH for 5 min. The reaction was started when the probe was added in 10 µM (pyranine; OATP1B1), 20 µM (pyranine; OATP2B1 and OATP1B3), or 0.5 µM (sulforhodamine 101; OATP1A2) final concentrations. […] Fluorescence was measured in an Enspire plate reader (Perkin Elmer, Waltham, MA, USA) in Ex/Em wavelengths 460/510 nm for pyranine and 586/605 nm for sulforhodamine 101. Bottom reading was applied with two horizontal (X) and two vertical (Y) points, measurement height was 3 mm with 200 flashes. IC50 values were calculated by sigmoidal fitting (Hill1), using the Origin (version 2018, OriginLab Corporation, Northampton, MA, USA) software.
# OATP1A2 = target: T7, OATP1A2 (Homo sapiens, UniProt P46721); test: cell-based; details: A431-OATP1A2; sulforhodamine 101 0.5 µM; pH 7.4; 10 min; read-out: IC50, OATP1A2 inhibition
# T7 construct: expressed in transfected cells; host or cells: A431
# T7 sequence (P46721 whole entry): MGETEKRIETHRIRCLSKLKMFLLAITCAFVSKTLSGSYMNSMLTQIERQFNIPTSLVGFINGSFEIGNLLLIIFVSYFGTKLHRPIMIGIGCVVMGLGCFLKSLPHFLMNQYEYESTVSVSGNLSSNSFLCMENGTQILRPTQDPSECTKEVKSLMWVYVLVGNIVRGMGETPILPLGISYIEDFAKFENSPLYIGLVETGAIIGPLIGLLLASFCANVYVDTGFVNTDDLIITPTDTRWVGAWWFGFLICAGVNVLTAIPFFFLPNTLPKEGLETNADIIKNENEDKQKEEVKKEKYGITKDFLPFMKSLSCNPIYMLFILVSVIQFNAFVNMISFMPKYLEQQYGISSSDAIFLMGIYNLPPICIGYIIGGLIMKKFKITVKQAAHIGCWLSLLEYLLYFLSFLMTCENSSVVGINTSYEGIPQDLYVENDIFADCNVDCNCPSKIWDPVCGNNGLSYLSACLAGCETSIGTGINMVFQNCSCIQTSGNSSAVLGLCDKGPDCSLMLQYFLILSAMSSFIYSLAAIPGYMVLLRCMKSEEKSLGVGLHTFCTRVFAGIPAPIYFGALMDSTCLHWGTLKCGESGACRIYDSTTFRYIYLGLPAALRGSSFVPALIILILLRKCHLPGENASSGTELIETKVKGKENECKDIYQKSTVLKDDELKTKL
# Experimental: as §3, §4
# CYP1A2 [2] = target: T1, CYP1A2; test: biochemical
# Experimental: CYP1A2 Inhibitor Assay Kit (Abcam; Cambridge, UK) was applied following the manufacturer’s description, where the inhibitory action of 0.000, 0.001, 0.010, 0.050, 0.10, 0.20, 0.50, 1.25, 3.0, 10, and 25 μM AOH concentrations were tested.
# IC50 values were calculated by sigmoidal fitting (Hill1), using the Origin (version 2018, OriginLab Corporation, Northampton, MA, USA) software.
# T1 sequence (P05177 whole entry): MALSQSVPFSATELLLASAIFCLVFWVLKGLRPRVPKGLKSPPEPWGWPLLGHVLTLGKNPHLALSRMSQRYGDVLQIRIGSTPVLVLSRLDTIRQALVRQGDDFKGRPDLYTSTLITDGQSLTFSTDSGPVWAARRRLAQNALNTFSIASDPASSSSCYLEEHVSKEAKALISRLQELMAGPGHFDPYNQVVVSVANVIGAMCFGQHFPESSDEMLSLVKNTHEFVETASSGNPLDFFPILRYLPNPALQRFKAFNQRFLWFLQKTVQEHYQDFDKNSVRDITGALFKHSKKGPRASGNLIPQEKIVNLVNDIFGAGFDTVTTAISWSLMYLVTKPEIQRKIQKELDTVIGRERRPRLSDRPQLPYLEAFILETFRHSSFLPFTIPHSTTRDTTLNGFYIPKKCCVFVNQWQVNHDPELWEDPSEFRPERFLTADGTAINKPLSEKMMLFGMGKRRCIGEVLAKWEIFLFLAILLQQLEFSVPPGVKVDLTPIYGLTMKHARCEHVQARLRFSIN
smiles,measurement,setting,value
"Cc1cc(O)cc2oc(=O)c3c(O)cc(O)cc3c12 [AOH, Alternariol]",depletion of AOH by CYP1A2,CYP1A2 [1]; 60 min incubation,16%
same,depletion of AOH by CYP1A2,CYP1A2 [1]; 120 min incubation,25%
same,changes in AOH levels in the presence of CYP3A4,CYP3A4,no relevant changes
same,changes in AOH levels in the presence of CYP2D6,CYP2D6,no relevant changes
same,changes in AOH levels in the presence of CYP2C19,CYP2C19,slight decrease
same,changes in AOH levels in the presence of CYP2C9,CYP2C9,no relevant changes
same,IC50,OATP2B1,1900 nM
same,IC50,OATP1A2,5400 nM
same,CYP1A2 inhibition at 0.05 μM,"CYP1A2 [2]; 0.05 μM AOH, p < 0.01",statistically significant
same,CYP1A2 inhibition at 10 μM,CYP1A2 [2]; 10 μM AOH,close to complete
same,IC50,"CYP1A2 [2]; fluorometric kit, AOH 0-25 μM, read-out: IC50, CYP1A2 inhibition",150 nM
